Where only a bound is given, the exact number is not on record here.

This passage reports Minimum inhibitory concentration results from US7935503B2, “Methods for producing and using polymyxins” (University of Georgia Research Foundation, Inc., priority 2007, dated 2011).

What all share (type): cell-based
Experiment [1] concerns Enterococcus faecalis ATCC 19433. Kind of experiment: Minimum inhibitory concentration (NCCLS dilution method). The settings on record: Enterococcus faecalis ATCC 19433, Gram positive; triplicate, identical values. As for the experimental part: (§1) Bacterial Strains and Culture Conditions. Paenibacillus amylolyticus C27, C25, C26, C28, and C30 were isolated from the hindgut extract of a Tipula abdominalis larva as described in Cook et al. (2007, Appl. Environ. Microbiol., 73:5683-5686), and grown aerobically at 28° C. on tryptic soy agar (TSA) and in tryptic soy both (TSB) or Davis minimal media broth (MM) (Atlas, 1993, Handbook of Microbiological Media, Boca Raton, Fla., CRC Press, Inc.). Escherichia coli ATCC 11303 was grown aerobically at 37° C. on Luria-Bertani agar or in broth. Enterococcus faecalis ATCC 19433, Pseudomonas aeruginosa ATCC 27853, Salmonella typhimurium ATCC 29629, Shigella fexneri ATCC 9199, Bacillus subtilis ATCC 6633, Staphylococcus aureus ATCC 6538, and Streptococcus pyogenes ATCC 19615 were grown aerobically at 37° C. on TSA.
(§2) Minimum inhibitory concentrations. Both P. amylolyticus C27 peaks with antibacterial activity from HPLC purification of 500 mL minimal media culture were combined. For analysis of polymyxin B (Sigma-Aldrich, St. Louis, Mo.), polymyxin E (Sigma-Aldrich, St. Louis, Mo.), and the P. amylolyticus C27 antibacterials, MIC determinations were performed according to the National Committee for Clinical Laboratory Standards (NCCLS) (Table 2) (NCCLS, 2003, Methods for dilution antimicrobial susceptibility tests for bacteria that grow aerobically; approved standard—sixth edition. NCCLS document M7-A6. Wayne, Pa., National Committee for Clinical Laboratory Standards).

Experiment [2] has as its system Escherichia coli ATCC 11303. The description is as above. The settings on record: Escherichia coli ATCC 11303, Gram negative; triplicate, identical values. The procedure:
as §1, §2

Experiment [3] deals with Pseudomonas aeruginosa ATCC 27853. The description is as above. The settings on record: Pseudomonas aeruginosa ATCC 27853, Gram negative; triplicate, identical values. As for the experimental part: as §1, §2
Experiment [4] concerns Salmonella typhimurium ATCC 29629. The experiment is described as above. The settings on record: Salmonella typhimurium ATCC 29629 (first line, r15), Gram negative; triplicate, identical values. The procedure:
as §1, §2

In experiment [5] the test system is Staphylococcus aureus ATCC 6538. The experiment is described as above. The note with it: Staphylococcus aureus ATCC 6538, Gram positive; triplicate, identical values. As for the experimental part: as §1, §2
For experiment [6], the system named is Streptococcus pyogenes ATCC 19615. The experiment is described as above. The settings on record: Streptococcus pyogenes ATCC 19615, Gram positive; triplicate, identical values. As for the experimental part:
as §1, §2

The test system of experiment [7] is Salmonella typhimurium ATCC 29629. Put plainly: Minimum inhibitory concentration (NCCLS dilution method), Salmonella typhimurium [sic]. The settings on record: Salmonella typhimurium ATCC 29629 (second line, r16), Gram negative; triplicate, identical values. The procedure:
as §1
Minimum inhibitory concentrations. Both P. amylolyticus C27 peaks with antibacterial activity from HPLC purification of 500 mL minimal media culture were combined. […]

On to polymyxin E, for which the Minimum inhibitory concentration is >128 µg/mL in experiment [1]; 2 µg/mL in experiment [2]; 4 µg/mL in experiment [3]; 1 µg/mL in experiment [4]; 128 µg/mL in experiment [5]; >128 µg/mL in experiment [6]. This substance also had a Minimum inhibitory concentration in experiment [7] of 2 µg/mL.

polymyxin B: the Minimum inhibitory concentration in experiment [1] was >128 µg/mL; in experiment [2], 2 µg/mL; in experiment [3], 4 µg/mL; in experiment [4], 4 µg/mL; in experiment [5] it was 32 µg/mL; in experiment [6], 32 µg/mL. The substance also displayed a Minimum inhibitory concentration in experiment [7] of 4 µg/mL.
